“Also recorded” adds a separate entry of the source.

The subject of the assay is HCoV-229E and three SARS-CoV-2 variants. The assay is described as follows: Antiviral effect against all tested coronavirus variants (text comparisons). It is filed as cell-based, human coronavirus. The settings on record: for antiviral effect against all tested coronavirus variants (in words): HCoV-229E and three SARS-CoV-2 variants.

Regarding `O=C(OC[C@H]1O[C@@H](n2ccc(NO)nc2=O)[C@H](O)[C@@H]1O)C1(c2ccccc2)CC1` [SN_20, 5′-O-(1-Phenylcyclopropanoyl-1-carbonyl)-N4-hydroxycytidine], the “antiviral effect against all tested coronavirus variants (in words)” value is listed as “no antiviral effect; also recorded: lowest activity”.

`Cc1cccc(OCC(=O)OC[C@H]2O[C@@H](n3ccc(NO)nc3=O)[C@H](O)[C@@H]2O)c1` [SN_22, 5′-O-(3-Methylphenoxy)acetyl-N4-hydroxycytidine]: the “antiviral effect against all tested coronavirus variants (in words)” value is “highest activity”. Turning to `O=C(Cc1ccccc1F)OC[C@H]1O[C@@H](n2ccc(NO)nc2=O)[C@H](O)[C@@H]1O` [SN_17, 5′-O-(2-Fluorophenyl)acetyl-N4-hydroxycytidine], the “fold increase in antiviral activity compared to SN_18” value (compared with 4-fluoro substituted conjugate SN_18) is no less than 2 fold. For `COc1cccc(CCC(=O)OC[C@H]2O[C@@H](n3ccc(NO)nc3=O)[C@H](O)[C@@H]2O)c1` [SN_23, 5′-O-3-(3-Methoxyphenyl)propanoyl-N4-hydroxycytidine], the “times higher antiviral effect than SN_15 and SN_16” value (compared with SN_15 and SN_16) was 2–6 times.

The values above are taken from article PMC10821229, “Synthesis and Antiviral Activity of Novel β-D-N4-Hydroxycytidine Ester Prodrugs as Potential Compounds for the Treatment of SARS-CoV-2 and Other Human Coronaviruses” (Pharmaceuticals, 2023).
